From ChEMBL document CHEMBL3885881, “DrugMatrix”

Species on record: Rattus norvegicus
Assay: DrugMatrix - Regimen: Daily Repeat
Type: toxicity, organism-based, Sprague-Dawley
Parameters: regimen Daily Repeat, gender Male, age 6-8 weeks
Conditions: in vivo, po, route oral GAVAGE, vehicle 100 % WATER
[1] = 70 mg/kg, 72 h, tissue Blood, dose level Low, time 3 day
[2] = 70 mg/kg, 72 h, tissue Plasma, dose level Low, time 3 day
[3] = 70 mg/kg, 120 h, tissue Blood, dose level Low, time 5 day
[4] = 70 mg/kg, 120 h, tissue Plasma, dose level Low, time 5 day
[5] = 700 mg/kg, 72 h, tissue Blood, dose level High, time 3 day
[6] = 700 mg/kg, 72 h, tissue Plasma, dose level High, time 3 day
[7] = 700 mg/kg, 120 h, tissue Blood, dose level High, time 5 day
[8] = 700 mg/kg, 120 h, tissue Plasma, dose level High, time 5 day

MANGANESE CHLORIDE ANHYDROUS
ABSOLUTE BASOPHIL [1]: 0 CELLS/uL
ABSOLUTE EOSINOPHIL [1]: 0 CELLS/uL
ABSOLUTE LYMPHOCYTE [1]: 8843.67 CELLS/uL
ABSOLUTE MONOCYTE [1]: 103.33 CELLS/uL
ABSOLUTE SEGMENTED NEUTROPHIL [1]: 819.67 CELLS/uL
BASOPHIL [1]: 0%
EOSINOPHIL [1]: 0%
ERYTHROCYTE COUNT [1]: 5.19 x10E6/uL
HEMATOCRIT [1]: 32.17%
HEMOGLOBIN [1]: 12.2 G/DL
LEUKOCYTE COUNT [1]: 9.77 x10E3/uL
LYMPHOCYTE [1]: 90%
MEAN CORPUSCULAR HEMOGLOBIN [1]: 23.5 pg
MEAN CORPUSCULAR HEMOGLOBIN CONCENTRATION [1]: 37.93 G/DL
MEAN CORPUSCULAR VOLUME [1]: 61.97 fL
MONOCYTE [1]: 0.67%
NUCLEATED RED BLOOD CELLS [1]: 0 /100WBC
PLATELET COUNT [1]: 1240.67 x10E3/uL
ALANINE AMINOTRANSFERASE [2]: 53.33 u/L
ALKALINE PHOSPHATASE [2]: 482 u/L
ASPARTATE AMINOTRANSFERASE [2]: 91.67 u/L
BLOOD UREA NITROGEN [2]: 13.33 mg/dL
CARBON DIOXIDE [2]: 35.33 mmol/L
CHLORIDE [2]: 99 MEQ/L
CHOLESTEROL [2]: 84 mg/dL
CREATINE PHOSPHOKINASE [2]: 442.33 u/L
CREATININE [2]: 0.22 mg/dL
GLUCOSE [2]: 139.33 mg/dL
LACTATE DEHYDROGENASE [2]: 131 u/L
PHOSPHORUS [2]: 12.07 mg/dL
POTASSIUM [2]: 6.21 MEQ/L
TOTAL BILIRUBIN [2]: 0.17 mg/dL
TOTAL PROTEIN [2]: 6.27 G/DL
URIC ACID [2]: 0.57 mg/dL
ABSOLUTE BASOPHIL [3]: 0 CELLS/uL
ABSOLUTE EOSINOPHIL [3]: 184.33 CELLS/uL
ABSOLUTE MONOCYTE [3]: 189.67 CELLS/uL
ABSOLUTE SEGMENTED NEUTROPHIL [3]: 2003 CELLS/uL
BASOPHIL [3]: 0%
EOSINOPHIL [3]: 1%
ERYTHROCYTE COUNT [3]: 4.88 x10E6/uL
HEMATOCRIT [3]: 30.07%
HEMOGLOBIN [3]: 11.73 G/DL
LEUKOCYTE COUNT [3]: 15.07 x10E3/uL
LYMPHOCYTE [3]: 84%
MEAN CORPUSCULAR HEMOGLOBIN [3]: 24.27 pg
MEAN CORPUSCULAR HEMOGLOBIN CONCENTRATION [3]: 39.03 G/DL
NEUTROPHIL [3]: 13.67%
NUCLEATED RED BLOOD CELLS [3]: 0.33 /100WBC
PLATELET COUNT [3]: 1245 x10E3/uL
ALANINE AMINOTRANSFERASE [4]: 35.67 u/L
ALBUMIN [4]: 3.9 G/DL
ALKALINE PHOSPHATASE [4]: 338 u/L
ASPARTATE AMINOTRANSFERASE [4]: 64.33 u/L
BLOOD UREA NITROGEN [4]: 13.67 mg/dL
CARBON DIOXIDE [4]: 31.67 mmol/L
CHOLESTEROL [4]: 69.33 mg/dL
CREATINE PHOSPHOKINASE [4]: 218 u/L
CREATININE [4]: 0.22 mg/dL
GLUCOSE [4]: 158.33 mg/dL
LACTATE DEHYDROGENASE [4]: 105.67 u/L
PHOSPHORUS [4]: 13.3 mg/dL
POTASSIUM [4]: 6.22 MEQ/L
TOTAL BILIRUBIN [4]: 0.17 mg/dL
TOTAL PROTEIN [4]: 5.83 G/DL
ABSOLUTE BASOPHIL [5]: 0 CELLS/uL
ABSOLUTE EOSINOPHIL [5]: 33.67 CELLS/uL
ABSOLUTE LYMPHOCYTE [5]: 10434.33 CELLS/uL
ABSOLUTE MONOCYTE [5]: 178.67 CELLS/uL
ABSOLUTE SEGMENTED NEUTROPHIL [5]: 1653.33 CELLS/uL
BASOPHIL [5]: 0%
EOSINOPHIL [5]: 0.33%
ERYTHROCYTE COUNT [5]: 4.97 x10E6/uL
HEMATOCRIT [5]: 30.43%
HEMOGLOBIN [5]: 11.8 G/DL
LEUKOCYTE COUNT [5]: 12.3 x10E3/uL
LYMPHOCYTE [5]: 85.67%
MEAN CORPUSCULAR HEMOGLOBIN [5]: 23.77 pg
MEAN CORPUSCULAR HEMOGLOBIN CONCENTRATION [5]: 38.77 G/DL
NEUTROPHIL [5]: 12.67%
NUCLEATED RED BLOOD CELLS [5]: 0 /100WBC
PLATELET COUNT [5]: 1357.33 x10E3/uL
ALANINE AMINOTRANSFERASE [6]: 45 u/L
ALBUMIN [6]: 3.77 G/DL
ALKALINE PHOSPHATASE [6]: 329.67 u/L
ASPARTATE AMINOTRANSFERASE [6]: 86.33 u/L
BLOOD UREA NITROGEN [6]: 13.67 mg/dL
CARBON DIOXIDE [6]: 36.33 mmol/L
CHLORIDE [6]: 99 MEQ/L
CHOLESTEROL [6]: 63.33 mg/dL
CREATINE PHOSPHOKINASE [6]: 347.67 u/L
CREATININE [6]: 0.26 mg/dL
GLUCOSE [6]: 139.67 mg/dL
LACTATE DEHYDROGENASE [6]: 119 u/L
PHOSPHORUS [6]: 11.6 mg/dL
POTASSIUM [6]: 5.86 MEQ/L
SODIUM [6]: 145.53 MEQ/L
TOTAL BILIRUBIN [6]: 0.17 mg/dL
TOTAL PROTEIN [6]: 6.23 G/DL
URIC ACID [6]: 0.47 mg/dL
ABSOLUTE BASOPHIL [7]: 0 CELLS/uL
ABSOLUTE EOSINOPHIL [7]: 0 CELLS/uL
ABSOLUTE LYMPHOCYTE [7]: 14144.67 CELLS/uL
ABSOLUTE MONOCYTE [7]: 257.33 CELLS/uL
ABSOLUTE SEGMENTED NEUTROPHIL [7]: 3531.33 CELLS/uL
BASOPHIL [7]: 0%
EOSINOPHIL [7]: 0%
ERYTHROCYTE COUNT [7]: 5.15 x10E6/uL
HEMATOCRIT [7]: 30.93%
HEMOGLOBIN [7]: 11.9 G/DL
LEUKOCYTE COUNT [7]: 17.93 x10E3/uL
LYMPHOCYTE [7]: 79.67%
MEAN CORPUSCULAR HEMOGLOBIN [7]: 23.1 pg
MEAN CORPUSCULAR VOLUME [7]: 60.03 fL
NEUTROPHIL [7]: 19%
NUCLEATED RED BLOOD CELLS [7]: 0 /100WBC
PLATELET COUNT [7]: 1336.67 x10E3/uL
ALANINE AMINOTRANSFERASE [8]: 40 u/L
ALKALINE PHOSPHATASE [8]: 346.33 u/L
ASPARTATE AMINOTRANSFERASE [8]: 68.67 u/L
BLOOD UREA NITROGEN [8]: 12.67 mg/dL
CARBON DIOXIDE [8]: 33.67 mmol/L
CHOLESTEROL [8]: 76.33 mg/dL
CREATINE PHOSPHOKINASE [8]: 209.67 u/L
CREATININE [8]: 0.31 mg/dL
GLUCOSE [8]: 139.67 mg/dL
LACTATE DEHYDROGENASE [8]: 88.67 u/L
POTASSIUM [8]: 5.7 MEQ/L
TOTAL BILIRUBIN [8]: 0.17 mg/dL
TOTAL PROTEIN [8]: 5.97 G/DL
URIC ACID [8]: 0.4 mg/dL
